# Reference: ChEMBL document CHEMBL1201862, “PubChem BioAssay data set” (2004)
#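 Exposure lasted 48 hours, with cells grown in 96-well plates and compounds tested at five concentrations. The concentration for 50% growth inhibition is given as GI50.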 Active and inactive are the calls of the source. Rule as the data show it: active = GI50 up to about 1.1 µM and inactive = higher.
# Experiments:
# Assay in all cases: inhibition of tumour cell growth, NCI panel, 48 h
# [1] = system: 786-0
# [2] = system: A498
# [3] = system: A549
# [4] = system: ACHN
# [5] = system: BT-549
# [6] = system: CAKI-1
# [7] = system: CCRF-CEM
# [8] = system: COLO 205
# [9] = system: DU-145
# [10] = system: EKVX
# [11] = system: HCC 2998
# [12] = system: HCT-116
# [13] = system: HCT-15
# [14] = system: HL-60
# [15] = system: HOP-62
# [16] = system: HT-29
# [17] = system: Hs-578T
# [18] = system: IGROV-1
# [19] = system: KM12
# [20] = system: M14
# [21] = system: MCF7
# [22] = system: MDA-MB-231
# [23] = system: MDA-MB-435
# [24] = system: MDA-N
# [25] = system: MOLT-4
# [26] = system: Malme-3M
# [27] = system: NCI-H226
# [28] = system: NCI-H23
# [29] = system: NCI-H460
# [30] = system: NCI-H522
# [31] = system: NCI/ADR-RES
# [32] = system: OVCAR-3
# [33] = system: OVCAR-4
# [34] = system: OVCAR-5
# [35] = system: PC-3
# [36] = system: RPMI-8226
# [37] = system: RXF 393
# [38] = system: SF-268
# [39] = system: SF-295
# [40] = system: SF-539
# [41] = system: SK-MEL-28
# [42] = system: SK-MEL-2
# [43] = system: SK-MEL-5
# [44] = system: SK-OV-3
# [45] = system: SN12C
# [46] = system: SNB-19
# [47] = system: SNB-75
# [48] = system: SW-620
# [49] = system: T47D
# [50] = system: TK-10
# [51] = system: U-251
# [52] = system: UACC-257
# [53] = system: UACC-62
# [54] = system: UO-31
compound,measurement,setting,value
CCCCCCCc1ccc(-c2nnc(/N=N/c3ccc(OCCCCC)cc3)s2)s1,GI50,[1],> 100 µM (inactive)
same,GI50,[2],> 100 µM (inactive)
same,GI50,[3],> 100 µM (inactive)
same,GI50,[4],> 100 µM (inactive)
same,GI50,[5],> 100 µM (inactive)
same,GI50,[6],> 100 µM (inactive)
same,GI50,[7],> 100 µM (inactive)
same,GI50,[8],> 100 µM (inactive)
same,GI50,[9],> 100 µM (inactive)
same,GI50,[10],> 100 µM (inactive)
same,GI50,[11],> 100 µM (inactive)
same,GI50,[12],> 100 µM (inactive)
same,GI50,[13],> 100 µM
same,GI50,[14],> 100 µM (inactive)
same,GI50,[15],> 100 µM (inactive)
same,GI50,[16],> 100 µM (inactive)
same,GI50,[17],> 100 µM (inactive)
same,GI50,[18],79.1 µM (inactive)
same,GI50,[19],> 100 µM (inactive)
same,GI50,[20],> 100 µM (inactive)
same,GI50,[21],> 100 µM (inactive)
same,GI50,[22],> 100 µM (inactive)
same,GI50,[23],> 100 µM (inactive)
same,GI50,[24],> 100 µM (inactive)
same,GI50,[25],> 100 µM (inactive)
same,GI50,[26],> 100 µM (inactive)
same,GI50,[27],> 100 µM (inactive)
same,GI50,[28],> 100 µM (inactive)
same,GI50,[29],> 100 µM (inactive)
same,GI50,[30],> 100 µM (inactive)
same,GI50,[31],> 100 µM (inactive)
same,GI50,[32],> 100 µM (inactive)
same,GI50,[33],> 100 µM (inactive)
same,GI50,[34],> 100 µM (inactive)
same,GI50,[35],> 100 µM (inactive)
same,GI50,[36],> 100 µM (inactive)
same,GI50,[37],> 100 µM (inactive)
same,GI50,[38],> 100 µM (inactive)
same,GI50,[39],> 100 µM (inactive)
same,GI50,[40],> 100 µM (inactive)
same,GI50,[41],> 100 µM (inactive)
same,GI50,[42],> 100 µM (inactive)
same,GI50,[43],> 100 µM (inactive)
same,GI50,[44],> 100 µM (inactive)
same,GI50,[45],> 100 µM (inactive)
same,GI50,[46],> 100 µM (inactive)
same,GI50,[47],> 100 µM (inactive)
same,GI50,[48],> 100 µM (inactive)
same,GI50,[49],> 100 µM (inactive)
same,GI50,[50],> 100 µM (inactive)
same,GI50,[51],> 100 µM (inactive)
same,GI50,[52],> 100 µM (inactive)
same,GI50,[53],> 100 µM (inactive)
same,GI50,[54],> 100 µM (inactive)
